Test results published in patent EP3981864A1, “DETERGENT COMPOSITION” (priority 2020, dated 2022).

Columns and labels:
[1] = test system: Citrus sinensis αDOX (SEQ ID NO: 11), fatty acid alpha-dioxygenase, A0A067FHE4, N-terminal His-tag variant SEQ ID NO: 269 (comparative); test: Alpha-dioxygenase activity assay (oxygen consumption, TON); type: biochemical; details: fatty acid 100 µM, enzyme 6 ppm, 50 mM HEPES pH 9.0, 37°C; initial rate of oxygen consumption / enzyme concentration
From the text: (§1) Citrus sinensis αDOX (SEQ ID NO: 11) is a fatty acid alpha-dioxygenase that converts fatty acids into the corresponding 2-hydroperoxy fatty acids and is included as a comparative example of the present invention. A codon optimized gene (SEQ ID NO: 268) encoding for an alpha-dioxygenase variant (SEQ ID NO: 269), including an N-terminal amino acid sequence containing a His-tag was designed and synthesized by Genscript. After gene synthesis, the protein was expressed and purified. In brief, the complete synthetic gene sequence was subcloned into a pET30a vector using the NdeI/HindIII cloning sites. For heterologous expression, Escherichia coli BL21 (DE3) cells were transformed with the recombinant plasmid and a single colony was inoculated into LB medium containing kanamycin (50 mg/L). A pre-starter culture was then inoculated into flasks containing Magic Media (Thermo Fisher, Catalog # K6803) supplemented with kanamycin (50 mg/L) and incubated at 16 °C for 72 h. At an OD600nm = 0.5 - 1.0, 5-aminolevulinic acid (final concentration 0.5 mM) was added. Cells were harvested by centrifugation at 5000 rpm and 4°C and the pellet was lysed using a bacterial cell lysis buffer (B-PER - Themo Fisher, Waltham, MA). After centrifugation, the supernatant was collected, and the protein was purified by one-step purification using HisPur™ Ni-NTA Spin Columns (Thermo Scientific, Catalog # 88226) and standard protocols known in the art. The protein was concentrated using a 10 kDa MW cutoff Amicon Ultra centrifugal filter unit (Millipore Sigma, Catalog# UFC901024), followed by desalting using a disposable PD-10 desalting column (GE Healthcare Life Sciences, Catalog# 17085101) and a buffer containing 50 mM Tris-HCl, 500 mM NaCl, and 10% Glycerol at pH 8.0. […]
(§2) Reactions with alpha-dioxygenases were performed as follows. […] The reaction was incubated for up to 10 minutes at 37°C with 200 rpm agitation and the conversion was monitored using an oxygen sensor. The TON (in s-1) were calculated as the ratio between the initial rate of oxygen consumption (in µM/s) and the concentration of enzyme (in µM). […]

[2] = target: T1, Nicotiana tabacum αDOX (SEQ ID NO: 6), fatty acid alpha-dioxygenase, 082031, N-terminal His-tag variant SEQ ID NO: 259 (Nicotiana tabacum, UniProt A0A1S3ZX38); test: as above; type: biochemical; details: fatty acid 100 µM, enzyme 6 ppm, 50 mM HEPES pH 9.0, 37°C; initial rate of oxygen consumption / enzyme concentration
T1 construct: made in house; host or cells: Escherichia coli BL21 (DE3), pET30a
T1 sequence (A0A1S3ZX38 1-643): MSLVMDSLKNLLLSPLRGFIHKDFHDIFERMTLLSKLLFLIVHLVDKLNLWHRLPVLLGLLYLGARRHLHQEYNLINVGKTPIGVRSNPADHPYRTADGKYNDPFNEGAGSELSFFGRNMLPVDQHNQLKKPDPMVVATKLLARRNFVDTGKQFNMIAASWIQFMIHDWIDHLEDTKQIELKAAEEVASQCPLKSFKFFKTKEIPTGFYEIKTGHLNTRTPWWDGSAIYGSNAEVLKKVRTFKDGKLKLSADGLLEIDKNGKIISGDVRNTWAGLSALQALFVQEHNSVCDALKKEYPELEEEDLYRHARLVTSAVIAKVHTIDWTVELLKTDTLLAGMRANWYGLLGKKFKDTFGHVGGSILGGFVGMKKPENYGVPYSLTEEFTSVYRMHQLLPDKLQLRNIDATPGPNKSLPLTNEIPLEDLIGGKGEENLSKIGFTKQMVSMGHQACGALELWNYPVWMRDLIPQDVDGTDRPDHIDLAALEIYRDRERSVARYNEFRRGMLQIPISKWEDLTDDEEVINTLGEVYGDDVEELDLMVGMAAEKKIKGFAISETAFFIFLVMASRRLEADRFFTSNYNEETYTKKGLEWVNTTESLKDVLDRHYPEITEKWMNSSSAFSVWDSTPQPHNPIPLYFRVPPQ
From the text: as §1, with “Nicotiana tabacum” for “Citrus sinensis”, “6)” for “11)”, “an” for “a comparative”, “258)” for “268)”, “259),” for “269),”
as §2

CCCCCCCC/C=C\CCCCCCCC(=O)O [Oleic Acid]
Oleic Acid, TON [1]: 0.00 s⁻¹
Oleic Acid, TON [2]: 0.78 s⁻¹

CCCCCCCCCCCCCCCCCC(=O)O [Stearic Acid]
Stearic Acid, TON [1]: 0.00 s⁻¹
Stearic Acid, TON [2]: 2.66 s⁻¹

CCCCCCCCCCCCCCCC(=O)O [Palmitic Acid]
Palmitic Acid, TON [1]: 0.29 s⁻¹
Palmitic Acid, TON [2]: 3.07 s⁻¹
